For assay [1], the target named is SUV39H2 (Homo sapiens (Human), UniProt Q9H5I1). Conditions: read-out: IC50 (μM) Suv 39H2 assay.
The subject of assay [2] is HCT-116. Description: Cell-based assay, anti-proliferative activity (Cell Counting Kit-8, 72 hours). The following applies: Homo sapiens, read-out: IC50 (μM) HCT-116. The method, then: (§1) Active candidate inhibitors against SUV39H2 were evaluated for their target-specific cytotoxicity using A549, HCT-116, HFL1, CCD-18Co and PC14. 100 micro-L of cell suspension was seeded onto 96-well microtiter plate (ViewPlate-96FTC, PerkinElmer). The initial cell concentration of A549, HCT-116, HFL1, CCD-18Co and PC14 were 3,000 cells/well, 2,000 cells/well and 2,500 cells/well, respectively. Cellular growth was determined using Cell Counting Kit-8 (DOJINDO) at 72 hours after the exposure of the candidate inhibitors. IC50 was used as an indicator of the anti-proliferative activity of the inhibitors, and calculated by serial dilution method (0, 1.5625, 3.125, 6.25, 12.5, 25, 50, and 100 micro-M). Accurate IC50 values were calculated as described previously.
A general note: Tetrazolium assays rely on reduction of a dye to a coloured formazan, in cell work by metabolically active cells.

Assay [3] concerns CCD-18Co. The description is as above. The following applies: Homo sapiens, read-out: IC50 (μM) CCD-18Co. The protocol: as §1
Assay [4] deals with HFL1. The assay is described as above. Conditions: Homo sapiens, read-out: IC50 (μM) HFL1. The method, then:
as §1

Assay [5] relates to A549. The assay is described as above. Conditions: Homo sapiens, read-out: IC50 (μM) A549. The protocol: 100 micro-L of cell suspension was seeded onto 96-well microtiter plate (ViewPlate-96FTC, PerkinElmer). […] Cellular growth was determined using Cell Counting Kit-8 (DOJINDO) at 72 hours after the exposure of the candidate inhibitors. […] Accurate IC50 values were calculated as described previously.

Where [6] appears, read: HCT-116 cells, Cell Counting Kit-8, 72 hours.
Setting [7] is: CCD-18Co cells, Cell Counting Kit-8, 72 hours.
[8] abbreviates: HFL1 cells, Cell Counting Kit-8, 72 hours.
Setting [9] is: A549 cells, Cell Counting Kit-8, 72 hours.

Structures can show the parent of a compound that is named as a salt. Where two headings read alike, the source gives them in different places.

What is called IC50 is the point on the concentration scale where inhibition reaches its midpoint.

Sequence of SUV39H2 (Q9H5I1 whole entry): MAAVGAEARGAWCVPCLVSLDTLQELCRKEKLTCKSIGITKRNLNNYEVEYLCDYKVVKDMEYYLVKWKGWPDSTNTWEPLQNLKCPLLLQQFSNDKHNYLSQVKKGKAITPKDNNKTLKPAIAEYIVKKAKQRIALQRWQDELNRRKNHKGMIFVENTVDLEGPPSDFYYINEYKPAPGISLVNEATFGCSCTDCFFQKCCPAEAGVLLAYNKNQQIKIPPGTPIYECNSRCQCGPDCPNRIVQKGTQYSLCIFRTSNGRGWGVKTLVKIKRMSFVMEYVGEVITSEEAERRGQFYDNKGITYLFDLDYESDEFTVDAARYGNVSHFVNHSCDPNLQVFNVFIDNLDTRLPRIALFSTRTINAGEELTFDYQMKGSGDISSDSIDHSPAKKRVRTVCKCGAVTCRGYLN

As to `COc1cc(OC)c(-c2cn3ccc(NCCCN)cc3n2)cc1Cl` [Example 35, N^1-(2-(5-chloro-2,4-dimethoxyphenyl)imidazo[1,2-a]pyridin-7-yl)propane-1,3-diamine], the IC50 in assay [1] (enzyme assay) was determined as 0.0124 µM; in assay [2] (setting [6]), 9.8 µM; in assay [3] (setting [7]) it was 14 µM; in assay [4] (setting [8]), 7 µM; in assay [5] (setting [9]), 14 µM.
Regarding `COc1cc(OC)c(-c2cn3cc(N4CCNCC4)ccc3n2)cc1Cl` [Example 115, 2-(5-chloro-2,4-dimethoxyphenyl)-6-(piperazin-1-yl)imidazo[1,2-a]-pyridine hydrochloride], the IC50 in assay [1] worked out at 0.0179 µM; in assay [2] (HCT-116, 72 h) it was 7.7 µM; in assay [3] (CCD-18Co, 72 h), 13 µM; in assay [4] (HFL1, 72 h), 8.4 µM; in assay [5] (A549, 72 h) it was 9.4 µM.
For `COc1cc(OC)c(-c2cn3ccc(N4CCC(CN)CC4)nc3n2)cc1Cl` [Example 31, (1-(2-(5-chloro-2,4-dimethoxyphenyl)imidazo[1,2-a]pyrimidin-7-yl)piperidin-4-yl)methanamine hydrochloride], the IC50 was determined as 0.0489 µM in assay [1]; 22 µM in assay [2] (HCT-116, 72 h); 23 µM in assay [3] (CCD-18Co, 72 h); 9.3 µM in assay [4] (HFL1, 72 h); 18 µM in assay [5] (A549, 72 h).
As to `COc1cc(OC)c(-c2cn3ccc(N4CCC(N)CC4)nc3n2)cc1Cl` [Example 42, 1-(2-(5-chloro-2,4-dimethoxyphenyl)imidazo[1,2-a]pyrimidin-7-yl)-piperidin-4-amine hydrochloride], the IC50 turned out to be 0.079 µM in assay [1]; 6.6 µM in assay [2] (HCT-116, 72 h); 13 µM in assay [3] (CCD-18Co, 72 h); 4.2 µM in assay [4] (HFL1, 72 h); 10 µM in assay [5] (A549, 72 h).
As to `COc1cc(OCCN(C)C)c(-c2cn3ccc(N4CCOCC4)cc3n2)cc1Cl` [Example 98, 2-(4-chloro-5-methoxy-2-(7-morpholinoimidazo[1,2-a]pyridin-2-yl)-phenoxy)-N,N-dimethylethanamine], the concentration for half-maximal inhibition (IC50) in assay [1] (enzyme assay) came out at 0.0372 µM; in assay [2] (setting [6]), 13 µM; in assay [3] (setting [7]), 9.9 µM; in assay [4] (setting [8]), 15 µM; in assay [5] (setting [9]), 22 µM.
For `COc1cc(OC)c(-c2cn3ccc(N4CCC(NC(=O)OC(C)(C)C)C4)nc3n2)cc1Br` (stereo not drawn) [Example 13], the IC50 turned out to be 0.0219 µM in assay [1] (enzyme assay); 6.6 µM in assay [2] (setting [6]); 4.4 µM in assay [3] (setting [7]); 3.7 µM in assay [4] (setting [8]); 5.7 µM in assay [5] (setting [9]).
`COc1cc(OC)c(-c2cn3ccc(N4CCC(NC(=O)OC(C)(C)C)C4)nc3n2)cc1Cl` (stereo not drawn) [Example 26, tert-butyl (1-(2-(5-chloro-2,4-dimethoxyphenyl)imidazo[1,2-a]pyrimidin-7-yl)pyrrolidin-3-yl)carbamate]: the IC50 in assay [1] (enzyme assay) was 0.017 µM; in assay [2] (setting [6]), 13 µM; in assay [3] (setting [7]) it was 7.9 µM; in assay [4] (setting [8]), 6.7 µM; in assay [5] (setting [9]), 7.9 µM.
For the compound `COc1cc(OC)c(-c2cn3cnc(N)cc3n2)cc1Cl` [Example 51, 2-(5-chloro-2,4-dimethoxyphenyl)imidazo[1,2-c]pyrimidin-7-amine], the half-inhibitory concentration (IC50) came out at 0.0531 µM in assay [1] (enzyme assay); 8.9 µM in assay [2] (setting [6]); 6.8 µM in assay [3] (setting [7]); 8.4 µM in assay [4] (setting [8]); 9.8 µM in assay [5] (setting [9]).
Take `COc1cc(OC)c(-c2cn3cc(CCCCN)c(N4CCOCC4)cc3n2)cc1Cl` [Example 114, 4-(2-(5-chloro-2,4-dimethoxyphenyl)-7-morpholinoimidazo[1,2-a]pyridin-6-yl)butan-1-amine]: the IC50 in assay [1] (enzyme assay) was found to be 0.0502 µM; in assay [2] (setting [6]) it was 7.9 µM; in assay [3] (setting [7]) it was 8.9 µM; in assay [4] (setting [8]), 6.2 µM; in assay [5] (setting [9]), 8.7 µM.
On to `COc1cc(OC)c(-c2cn3ccc(C4CCC(=O)CC4)cc3n2)cc1Cl` [Example 119, 4-(2-(5-chloro-2,4-dimethoxyphenyl)imidazo[1,2-a]pyridin-7-yl)-cyclohexanone], for which the IC50 in assay [1] (enzyme assay) was determined as 0.0429 µM; in assay [2] (HCT-116, 72 h) it was 9.7 µM; in assay [3] (CCD-18Co, 72 h), 3.6 µM; in assay [4] (HFL1, 72 h) it was 3.5 µM; in assay [5] (A549, 72 h) it was 5.8 µM.
Turning to `COc1cc(OC)c(-c2cn3ccc(N4CCNCC4)cc3n2)cc1Cl` [Example 17, 2-(5-chloro-2,4-dimethoxyphenyl)-7-(piperazin-1-yl)imidazo[1,2-a]pyridine], the IC50 came out at 0.0195 µM in assay [1] (enzyme assay); 4.5 µM in assay [2] (setting [6]); 8.6 µM in assay [3] (setting [7]); 3.3 µM in assay [4] (setting [8]); 6.1 µM in assay [5] (setting [9]).
Take `COc1cc(OC)c(-c2cn3ccc(N(C)CCNC(=O)OC(C)(C)C)cc3n2)cc1Cl` [Example 48, tert-butyl (2-((2-(5-chloro-2,4-dimethoxyphenyl)imidazo[1,2-a]pyridine-7-yl)(methyl)aimno)ethyl)carbamate]: the IC50 in assay [1] (enzyme assay) stood at 0.0124 µM; in assay [2] (setting [6]), 7.3 µM; in assay [3] (setting [7]), 6.4 µM; in assay [4] (setting [8]) it was 3.8 µM; in assay [5] (setting [9]) it was 8.2 µM.
Consider `COc1cc(OC)c(-c2cn3ccc(N4CC[C@H](NC(=O)OC(C)(C)C)C4)nc3n2)cc1Cl` [Example 56, (S)-tert-butyl (1-(2-(5-chloro-2,4-dimethoxyphenyl)imidazo[1,2-a]-pyrimidin-7-yl)pyrrolidin-3-yl)carbamate], for which the IC50 in assay [1] (enzyme assay) came to 0.0168 µM; in assay [2] (setting [6]), 7 µM; in assay [3] (setting [7]) it was 7 µM; in assay [4] (setting [8]) it was 5.7 µM; in assay [5] (setting [9]) it was 7.5 µM.
As to `COc1cc(OC)c(-c2cn3ccc(N4CCOCC4)cc3n2)cc1C` [Example 86, 4-(2-(2,4-dimethoxy-5-methylphenyl)imidazo[1,2-a]pyridin-7-yl)morpholine], the IC50 in assay [1] (enzyme assay) came to 0.0207 µM; in assay [2] (setting [6]), 14 µM; in assay [3] (setting [7]), 13 µM; in assay [4] (setting [8]), 8 µM; in assay [5] (setting [9]), 14 µM.
In the case of `COc1cc(OC)c(-c2cn3ccc(N4CC[C@H](N)C4)nc3n2)cc1Cl` [Example 58, (S)-1-(2-(5-chloro-2,4-dimethoxyphenyl)imidazo[1,2-a]pyrimidin-7-yl)-pyrrolidin-3-amine hydrochloride], the IC50 in assay [1] worked out at 0.0296 µM; in assay [2] (HCT-116, 72 h), 9.4 µM; in assay [3] (CCD-18Co, 72 h), 13 µM; in assay [4] (HFL1, 72 h) it was 6.2 µM; in assay [5] (A549, 72 h), 14 µM.
`COc1cc(OC)c(-c2cn3ccc(N4CCCC4)cc3n2)cc1Br` [Example 1, 2-(5-bromo-2,4-dimethoxyphenyl)-7-(pyrrolidin-1-yl)imidazo[1,2-a]pyridine]: the IC50 in assay [1] (enzyme assay) was determined as 0.0182 µM; in assay [2] (HCT-116, 72 h), 1.7 µM; in assay [3] (CCD-18Co, 72 h), 2.6 µM; in assay [4] (HFL1, 72 h) it was 1.6 µM; in assay [5] (A549, 72 h), 2.5 µM.
With `COc1cc(OC)c(-c2cn3ccc(N4CCC(NC(=O)CCNC(=O)OC(C)(C)C)C4)nc3n2)cc1Br` (stereo not drawn) [Example 65], the IC50 in assay [1] (enzyme assay) worked out at 0.014 µM; in assay [2] (setting [6]) it was 17 µM; in assay [3] (setting [7]) it was 26 µM; in assay [4] (setting [8]) it was 27 µM; in assay [5] (setting [9]), 28 µM.
For `COc1cc(OC)c(-c2cn3ccc(C4=CCN(CCC#N)CC4)cc3n2)cc1Cl` [Example 109, 3-(4-(2-(5-chloro-2,4-dimethoxyphenyl)imidazo[1,2-a]pyridin-7-yl)-5,6-dihydropyridin-1(2H)-yl)propanenitrile], the IC50 stood at 0.0417 µM in assay [1] (enzyme assay); 5.1 µM in assay [2] (setting [6]); 2.6 µM in assay [3] (setting [7]); 1.8 µM in assay [4] (setting [8]); 5.9 µM in assay [5] (setting [9]).
For the compound `COc1cc(OCCCN(C)C)c(-c2cn3ccc(N4CCOCC4)cc3n2)cc1Cl` [Example 85, 3-(4-chloro-5-methoxy-2-(7-morpholinoimidazo[1,2-a]pyridin-2-yl)-phenoxy)-N,N-dimethylpropan-1-amine], the IC50 in assay [1] (enzyme assay) was found to be 0.0338 µM; in assay [2] (setting [6]), 9 µM; in assay [3] (setting [7]), 7.9 µM; in assay [4] (setting [8]) it was 3.5 µM; in assay [5] (setting [9]), 8.7 µM.
In the case of `COc1cc(OC)c(-c2cn3ccc(N4CC[C@@H](NC(=O)OC(C)(C)C)C4)nc3n2)cc1Cl` [Example 57, (R)-tert-Butyl (1-(2-(5-chloro-2,4-dimethoxyphenyl)imidazo[1,2-a]pyrimidin-7-yl)-pyrrolidin-3-yl)carbamate], the IC50 in assay [1] (enzyme assay) came to 0.0108 µM; in assay [2] (setting [6]), 7.2 µM; in assay [3] (setting [7]) it was 4.8 µM; in assay [4] (setting [8]), 4 µM; in assay [5] (setting [9]), 7.1 µM.
For the compound `COc1cc(OC)c(-c2cn3ccc(N4CCN(CCN)CC4)cc3n2)cc1Cl` [Example 29, 2-(4-(2-(5-chloro-2,4-dimethoxyphenyl)imidazo[1,2-a]pyridin-7-yl)piperazin-1-yl)ethanamine trihydrochloride], the IC50 was 0.012 µM in assay [1]; 9.7 µM in assay [2] (HCT-116, 72 h); 12 µM in assay [3] (CCD-18Co, 72 h); 4.5 µM in assay [4] (HFL1, 72 h); 7 µM in assay [5] (A549, 72 h).

The values above are taken from patent US10508109B2 (priority 2015, dated 2019).
